Test results published in patent publication US9902735B2, “Heteroaryl substituted compounds as RORγ inhibitors” (GlaxoSmithKline Intellectual Property Developement Limited, priority 2014, dated 2018).

Experiments:
Mouse CD4+ cells = experiment: Th17 cell differentiation assay (IL-17 ELISA); format: cell-based; details: mean of multiple test results if tested more than once, read-out: pIC50 in the Th17 cell differentiation assay (converted)
Description: Mouse CD4+ cells were purified using the CD4+ T Cell Isolation II Kit according to manufacturer's instructions (Miltenyi Biotec). 96 well plates were pre-coated with anti-mCD3 antibody. Un-coated wells were used as controls. CD4+ Cells were resuspended in RPMI 1640 complete medium and were added to the 96-well plates. Cytokine cocktail and the compound were then added to the wells. Antibodies and cytokines (all from R&D Systems) used in the assay were selected from the following: anti-mCD3; anti-mCD28; anti-mIFNγ; anti-mIL4; mIL-6; mIL-23; mIL-1β; hTGF-β1. The culture was incubated at 37° C. for 3 days and supernatants were collected for ELISA. The IL-17 ELISAs were performed according to manufacturer's instructions (R&D Systems). The results were analyzed using Prism software with non-linear regression to determine pIC50.
The Th17 differentiation culture described above was maintained for 5 days and cells were analyzed by IL-17 and IFN-γ intracellular staining according to manufacturer's instructions (BD Biosciences).

[1] = target: T1, Human RORγ Ligand Binding Domain (RORγ-LBD) (Homo sapiens, UniProt P51449); experiment: Dual Fluorescence Energy Transfer (FRET) assay; format: biochemical; details: mean of multiple test results if tested more than once; read-out: pIC50 in the dual FRET assay (converted)
T1 construct: made in house; host or cells: E. coli BL21(DE3)
T1 sequence (P51449 263-518): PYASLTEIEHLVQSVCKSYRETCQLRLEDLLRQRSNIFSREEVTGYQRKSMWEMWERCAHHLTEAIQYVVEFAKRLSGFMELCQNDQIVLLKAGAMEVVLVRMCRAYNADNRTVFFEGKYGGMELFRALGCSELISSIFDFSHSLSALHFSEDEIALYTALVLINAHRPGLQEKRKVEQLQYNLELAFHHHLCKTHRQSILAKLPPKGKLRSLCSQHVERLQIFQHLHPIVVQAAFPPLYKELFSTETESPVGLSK
Description: This assay is based on the knowledge that nuclear receptors interact with cofactors (transcription factors) in a ligand dependent manner. RORγ is a typical nuclear receptor in that it has an AF2 domain in the ligand binding domain (LBD) which interacts with co-activators. The sites of interaction have been mapped to the LXXLL motifs in the co-activator SRC1(2) sequences. Short peptide sequences containing the LXXLL motif mimic the behavior of full-length co-activator.
The assay measures ligand-mediated interaction of the co-activator peptide with the purified bacterial-expressed RORγ ligand binding domain (RORγ-LBD) to indirectly assess ligand binding. RORγ has a basal level of interaction with the co-activator SRC1(2) in the absence of ligand, thus it is possible to find ligands that inhibit or enhance the RORγ/SRC1(2) interaction.
Human RORγ Ligand Binding Domain (RORγ-LBD) was expressed in E. coli strain BL21(DE3) as an amino-terminal polyhistidine tagged fusion protein. DNA encoding this recombinant protein was sub-cloned into a modified pET21a expression vector (Novagen). […]
Approximately 50 g E. coli cell pellet was resuspended in 300 mL of lysis buffer (30 mM imidazole pH 7.0 and 150 mM NaCl). […] After washing to baseline absorbance with the equilibration buffer, the column was developed with a gradient from 30 to 500 mM imidazole pH 7.0. […]

Cc1ncc(C(=O)Nc2cc(Cl)cc(CN3CCN(C(=O)CC4CC4)[C@@H](C)C3)c2C)cc1F [Example 80, (S)—N-(5-chloro-3-((4-(2-cyclopropylacetyl)-3-methylpiperazin-1-yl)methyl)-2-methylphenyl)-5-fluoro-6-methylnicotinamide]
IC50 (Mouse CD4+ cells): ~5.01 nM | IC50 [1]: ~100 nM
